Data taken from patent US12435060B2, “Acylamino bridged heterocyclic compound, and composition and application thereof” (BEIJING SCITECH-MQ PHARMACEUTICALS LIMITED, priority 2019, dated 2025).

How the values were obtained:
HT29 cells = assay: Inhibition of cell necrosis (CCK8 method), induced programmed necrosis of HT29 cells; type: cell-based; details: Homo sapiens, HT-29; rescue from necrosis induced by TNF-α 20 ng/mL, AT-406 1 μM, Z-VAD-FMK 20 μM; 16-20 hours; CCK-8, OD 450 nm
Outline: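 HT29 cells in McCOY's 5A with 10% FBS were pre-treated for 30 min with compound (9 fourfold steps, 25000 to 0.38 nM final, 0.25% DMSO). Necrosis was then induced with TNF-α 20 ng/mL, AT-406 1 μM and Z-VAD-FMK 20 μM for 16-20 h. Viability was read by CCK-8 OD450, normalized between uninduced and induced wells, and IC50 was curve-fitted.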

RIPK1 = molecular target: T1, RIPK1 (Homo sapiens, UniProt Q13546); assay: Western blot determination of inhibition of RIPK1 phosphorylation in HT29 cells; type: cell-based; details: Z-VAD-FMK 20 μM, TNF-α 20 ng/mL, AT-406 100 nM, 7 hours, FIG. 1 and FIG. 2
T1 construct: the phosphorylation of intracellular RIPK1 during the induction of programmed necrosis of HT29 cells; endogenous in cells; host or cells: HT29 cells
T1 sequence (Q13546 1-671): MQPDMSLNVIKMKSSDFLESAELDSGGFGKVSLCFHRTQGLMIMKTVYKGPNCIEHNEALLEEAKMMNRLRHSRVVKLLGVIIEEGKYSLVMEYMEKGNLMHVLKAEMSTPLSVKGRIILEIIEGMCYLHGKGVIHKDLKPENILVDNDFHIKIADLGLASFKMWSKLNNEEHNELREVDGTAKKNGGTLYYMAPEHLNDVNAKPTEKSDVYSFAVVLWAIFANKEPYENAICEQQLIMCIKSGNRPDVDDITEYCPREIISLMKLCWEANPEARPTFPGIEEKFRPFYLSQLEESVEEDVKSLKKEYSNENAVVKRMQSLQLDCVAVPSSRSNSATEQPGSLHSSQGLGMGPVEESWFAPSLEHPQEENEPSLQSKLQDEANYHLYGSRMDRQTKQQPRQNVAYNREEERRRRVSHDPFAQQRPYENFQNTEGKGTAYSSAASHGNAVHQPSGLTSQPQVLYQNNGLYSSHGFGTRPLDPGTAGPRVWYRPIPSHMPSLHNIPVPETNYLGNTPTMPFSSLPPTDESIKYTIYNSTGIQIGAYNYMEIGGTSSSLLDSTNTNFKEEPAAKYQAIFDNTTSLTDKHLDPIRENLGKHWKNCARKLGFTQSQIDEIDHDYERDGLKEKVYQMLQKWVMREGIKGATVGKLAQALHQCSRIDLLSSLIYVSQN
Description: Assay Example 1. Western Blot Determination of Inhibition of Compounds on RIPK1 Phosphorylation in HT29 Cells
Western blot was used to determine the effect of the test compounds on the phosphorylation of intracellular RIPK1 during the induction of programmed necrosis of HT29 cells, verifying the effect of compounds on RIPK1 phosphorylation, and initially estimating the IC50 range of compounds for RIPK1 phosphorylation.
II. Experiment Procedure • 1. […] 40-50 ug of protein sample to be determined or pre-stained two-color protein molecular weight standard were added to each well. • 4. […]

Cc1ccccc1-c1ccnc(NC(=O)c2nnc(Cc3ccccc3)[nH]2)c1 [Example 2, 5-benzyl-N-(4-(o-methylphenyl)pyridin-2-yl)-4H-1,2,4-triazole-3-carboxamide]
IC50 (HT29 cells): 0.1 to 1 µM
inhibition of RIPK1 phosphorylation (RIPK1): directly inhibit the phosphorylation activation of RIPK1
